Measurements from patent publication US7468384B2, “Microbicidal composition” (Rohm and Haas Company, priority 2004, dated 2008).

Columns and labels:
Type in all cases: cell-based
[1] = test system: Pseudomonas aeruginosa (P. aeruginosa—ATCC #15442); experiment: Synergy test, microtiter plate high resolution MIC assay, bacterium; design: key to SI (calculated synergy index) / SI (synergy index): SI = Qa/QA + Qb/QB (mixture vs. alone end-point concentrations); details: P. aeruginosa 15442, M9GY; for Qa: BIT concentration giving end point (MIC); for Qa (BIT at end point, MIC): alone where Qb = 0
Procedure, shortened: (§1)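 Broth microdilution MICs (PDB for C. albicans and A. niger, 5×10^5 fungi/mL; TSB or M9GY for P. aeruginosa, ~5×10^6 bacteria/mL), combinations across 2–10,000 ppm active.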

[2] = test system: Aspergillus niger (A. niger—ATCC 16404); experiment: Synergy test, microtiter plate high resolution MIC assay, mold; design: key to SI (calculated synergy index) / SI (synergy index): SI = Qa/QA + Qb/QB (mixture vs. alone end-point concentrations); details: A. niger 16404, PDB; for Qa: BIT concentration giving end point (MIC); for Qa (BIT at end point, MIC): alone where Qb = 0
Procedure, shortened: as §1

[3] = test system: Escherichia coli (E. coli—ATCC #8739); experiment: Synergy test, microtiter plate high resolution MIC assay, bacterium; details: E. coli 8739, M9GY; for Qa: BIT concentration giving end point (MIC); for Qa (BIT at end point, MIC): alone where Qb = 0
Procedure, shortened: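 Synergy against Escherichia coli ATCC #8739 was assessed in standard microtiter plates with M9GY medium, a minimal salt medium supplemented with 0.2% glucose and 0.1% yeast extract. The inoculum was about 5×10^6 bacteria per mL. MICs for each agent alone and in mixtures were combined into a synergy index, Qa/QA+Qb/QB.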

[4] = test system: Candida albicans (C. albicans—ATCC 10231); experiment: Synergy test, microtiter plate high resolution MIC assay, yeast; details: C. albicans 10231, PDB; for Qa: BIT concentration giving end point (MIC); for Qa (BIT at end point, MIC): alone where Qb = 0
Procedure, shortened: as §1

[5] = alone or mixed with Imidalozidinyl urea, 48 hours
[6] = alone or mixed with benzyl alcohol, 48 hours
[7] = alone or mixed with caprylyl glycol, 24 hours
[8] = alone or mixed with diazolidinyl urea, 48 hours
[9] = Table 24, BIT with Cis-1-(3-chloroallyl)-3,5,7-triaza-1-azoniaadamantane chloride, 24 hours
[10] = Table 25, BIT with sodium dehydroacetic acid, 24 hours
[11] = Table 26, BIT with sodium benzoate, 24 hours
[12] = synergy index BIT + Imidalozidinyl urea, 48 hours
[13] = synergy index BIT + benzyl alcohol, 48 hours
[14] = synergy index BIT + caprylyl glycol, 24 hours
[15] = synergy index BIT + diazolidinyl urea, 48 hours
[16] = alone or mixed with glutaraldehyde, 24 hours
[17] = synergy index BIT + glutaraldehyde, 24 hours

In the case of `O=c1[nH]sc2ccccc12` [BIT, 1,2-benzisothiazolin-3-one], the Qa ([1]; alone or mixed with 2,2′-dithiobis(N-methylbenzamide), 48 hours) is reported as 100 ppm, the Qa [1, 5] is reported as 100 ppm and the Qa [1, 6] is reported as 100 ppm. It also gave a Qa [1, 7] of 100 ppm, a Qa ([1]; alone or mixed with chlorphenesin, 72 hours) of 100 ppm and a Qa [1, 8] of 100 ppm. The Qa ([1]; alone or mixed with ethylparaben, 48 hours) was 100 ppm, the Qa ([1]; alone or mixed with glutaraldehyde, 48 hours) was 60 ppm and the Qa ([1]; alone or mixed with methylparaben, 48 hours) was 100 ppm. The Qa ([1]; alone or mixed with phenoxyethanol, 48 hours) was 100 ppm, the “SI (calculated synergy index)” value ([1]; Table 8, 48 hours) was 1.00 and the “Qa: end-point activity (MIC) of BIT in the mixture (BIT alone, QA, where Qb = 0)” value (“Qa: end-point activity (MIC) of BIT” for short) ([1]; Table 8, 48 hours, B = Benzalkonium chloride) was 100 ppm. For the same molecule, the “SI (calculated synergy index)” value ([1]; Table 9, 48 hours) was 1.00, the “Qa: end-point activity (MIC) of BIT” value ([1]; Table 9, 48 hours, B = Benzethonium chloride) was 100 ppm and the “Qa (BIT at end point, MIC)” value ([1]; Table 21, BIT with Linoleamidopropyl PG-dimonium chloride phosphate, 48 hours) was 100 ppm. For the same molecule, the “SI (synergy index)” value ([1]; Table 21, 48 hours) was 1.00, the “Qa (BIT at end point, MIC)” value ([1]; Table 22, BIT with Cocamidopropyl PG-dimonium chloride phosphate, 72 hours) was 100 ppm and the “SI (synergy index)” value ([1]; Table 22, 72 hours) was 1.00. The “Qa (BIT at end point, MIC)” value ([1]; Table 23, BIT with propylparaben, 24 hours) was 80 ppm, the “SI (synergy index)” value ([1]; Table 23, 24 hours) was 1.33 and the “Qa (BIT at end point, MIC)” value [1, 9] was 60 ppm. The “SI (synergy index)” value ([1]; Table 24, 24 hours) was 1.00, the “Qa (BIT at end point, MIC)” value [1, 10] was 60 ppm and the “SI (synergy index)” value ([1]; Table 25, 24 hours) was 1.00. The “Qa (BIT at end point, MIC)” value [1, 11] was 60 ppm, the “SI (synergy index)” value ([1]; Table 26, 24 hours) was 1.00 and the “Qa (BIT at end point, MIC)” value ([1]; Table 27, BIT with Sodium hydroxymethylglycinate, 24 hours) was 60 ppm. The “SI (synergy index)” value ([1]; Table 27, 24 hours) was 1.00, the “Qa (BIT at end point, MIC)” value ([1]; Table 28, BIT with zinc pyrithione, 48 hours) was 100 ppm and the “SI (synergy index)” value ([1]; Table 28, 48 hours) was 1.00. The SI ([1]; synergy index BIT + 2,2′-dithiobis(N-methylbenzamide), 48 hours) was 1.00, the SI [1, 12] was 1.00 and the SI [1, 13] was 1.00. The SI [1, 14] was 1.00, the SI ([1]; synergy index BIT + chlorphenesin, 72 hours) was 1.00 and the SI [1, 15] was 1.00. For the same molecule, the SI ([1]; synergy index BIT + ethylparaben, 48 hours) was 1.00, the SI ([1]; synergy index BIT + glutaraldehyde, 48 hours) was 1.00 and the SI ([1]; synergy index BIT + methylparaben, 48 hours) was 1.00. The SI ([1]; synergy index BIT + phenoxyethanol, 48 hours) was 1.00, the Qa ([2]; alone or mixed with 2,2′-dithiobis(N-methylbenzamide), 3 days) was 20 ppm and the Qa ([2]; alone or mixed with EDTA, 4 days) was 20 ppm. For the same molecule, the Qa ([2]; alone or mixed with Imidalozidinyl urea, 3 days) was 20 ppm, the Qa ([2]; alone or mixed with benzyl alcohol, 1 week) was 50 ppm and the Qa ([2]; alone or mixed with caprylyl glycol, 1 week) was 50 ppm. For the same molecule, the Qa ([2]; alone or mixed with chlorphenesin, 1 week) was 50 ppm, the Qa ([2]; alone or mixed with diazolidinyl urea, 3 days) was 20 ppm and the Qa ([2]; alone or mixed with ethylparaben, 3 days) was 20 ppm. For the same molecule, the Qa ([2]; alone or mixed with glutaraldehyde, 3 days) was 20 ppm, the Qa ([2]; alone or mixed with methylparaben, 4 days) was 30 ppm and the Qa ([2]; alone or mixed with phenoxyethanol, 3 days) was 20 ppm. For the same molecule, the “SI (calculated synergy index)” value ([2]; Table 8, 1 week) was 1.00, the “Qa: end-point activity (MIC) of BIT” value ([2]; Table 8, 1 week, B = Benzalkonium chloride) was 30 ppm and the “SI (calculated synergy index)” value ([2]; Table 9, 4 days) was 1.00. The “Qa: end-point activity (MIC) of BIT” value ([2]; Table 9, 4 days, B = Benzethonium chloride) was 30 ppm, the “SI (synergy index)” value ([2]; Table 21, 4 days) was 1.00 and the “Qa (BIT at end point, MIC)” value ([2]; Table 21, BIT with Linoleamidopropyl PG-dimonium chloride phosphate, 4 days) was 30 ppm. For the same molecule, the “SI (synergy index)” value ([2]; Table 22, 1 week) was 1.00, the “Qa (BIT at end point, MIC)” value ([2]; Table 22, BIT with Cocamidopropyl PG-dimonium chloride phosphate, 1 week) was 30 ppm and the “SI (synergy index)” value ([2]; Table 23, 3 days) was 1.00. For the same molecule, the “Qa (BIT at end point, MIC)” value ([2]; Table 23, BIT with propylparaben, 3 days) was 20 ppm, the “SI (synergy index)” value ([2]; Table 24, 3 days) was 1.00 and the “Qa (BIT at end point, MIC)” value ([2]; Table 24, BIT with Cis-1-(3-chloroallyl)-3,5,7-triaza-1-azoniaadamantane chloride, 3 days) was 30 ppm. For the same molecule, the “SI (synergy index)” value ([2]; Table 25, 1 week) was 1.00, the “Qa (BIT at end point, MIC)” value ([2]; Table 25, BIT with sodium dehydroacetic acid, 1 week) was 30 ppm and the “SI (synergy index)” value ([2]; Table 26, 1 week) was 1.00. The “Qa (BIT at end point, MIC)” value ([2]; Table 26, BIT with sodium benzoate, 1 week) was 30 ppm, the “SI (synergy index)” value ([2]; Table 27, 3 days) was 1.00 and the “Qa (BIT at end point, MIC)” value ([2]; Table 27, BIT with Sodium hydroxymethylglycinate, 3 days) was 20 ppm. For the same molecule, the “SI (synergy index)” value ([2]; Table 28, 1 week) was 1.00, the “Qa (BIT at end point, MIC)” value ([2]; Table 28, BIT with zinc pyrithione, 1 week) was 30 ppm and the SI ([2]; synergy index BIT + 2,2′-dithiobis(N-methylbenzamide), 3 days) was 1.00. It also gave an SI ([2]; synergy index BIT + EDTA, 4 days) of 1.00, an SI ([2]; synergy index BIT + Imidalozidinyl urea, 3 days) of 1.00 and an SI ([2]; synergy index BIT + benzyl alcohol, 1 week) of 1.00. For the same molecule, the SI ([2]; synergy index BIT + caprylyl glycol, 1 week) was 1.00, the SI ([2]; synergy index BIT + chlorphenesin, 1 week) was 1.00 and the SI ([2]; synergy index BIT + diazolidinyl urea, 3 days) was 1.00. The SI ([2]; synergy index BIT + ethylparaben, 3 days) was 1.00, the SI ([2]; synergy index BIT + glutaraldehyde, 3 days) was 1.00 and the SI ([2]; synergy index BIT + methylparaben, 4 days) was 1.00. For the same molecule, the SI ([2]; synergy index BIT + phenoxyethanol, 3 days) was 1.00, the Qa [3, 5] was 7.5 ppm and the Qa ([3]; alone or mixed with benzyl alcohol, 24 hours) was 7.5 ppm. For the same molecule, the Qa [3, 7] was 7.5 ppm, the Qa [3, 8] was 8 ppm and the Qa [3, 16] was 10 ppm. For the same molecule, the “Qa (BIT at end point, MIC)” value ([3]; Table 24, BIT with Cis-1-(3-chloroallyl)-3,5,7-triaza-1-azoniaadamantane chloride, 48 hours) was 10 ppm, the “SI (synergy index)” value ([3]; Table 24, 48 hours) was 1.00 and the “Qa (BIT at end point, MIC)” value [3, 10] was 7.5 ppm. The “SI (synergy index)” value ([3]; Table 25, 24 hours) was 1.00, the “Qa (BIT at end point, MIC)” value [3, 11] was 7.5 ppm and the “SI (synergy index)” value ([3]; Table 26, 24 hours) was 1.00. For the same molecule, the SI [3, 12] was 1.00, the SI ([3]; synergy index BIT + benzyl alcohol, 24 hours) was 1.00 and the SI [3, 14] was 1.00. The SI [3, 15] was 1.00, the SI [3, 17] was 1.00 and the Qa ([4]; alone or mixed with Imidalozidinyl urea, 24 hours) was 30 ppm. The Qa [4, 6] was 30 ppm, the Qa [4, 7] was 30 ppm and the Qa ([4]; alone or mixed with diazolidinyl urea, 24 hours) was 30 ppm. For the same molecule, the Qa [4, 16] was 30 ppm, the “Qa (BIT at end point, MIC)” value [4, 9] was 20 ppm and the “SI (synergy index)” value ([4]; Table 24, 24 hours) was 1.00. The “Qa (BIT at end point, MIC)” value [4, 10] was 30 ppm, the “SI (synergy index)” value ([4]; Table 25, 24 hours) was 1.00 and the “Qa (BIT at end point, MIC)” value ([4]; Table 26, BIT with sodium benzoate, 48 hours) was 30 ppm. For the same molecule, the “SI (synergy index)” value ([4]; Table 26, 48 hours) was 1.00, the SI ([4]; synergy index BIT + Imidalozidinyl urea, 24 hours) was 1.00 and the SI [4, 13] was 1.00. For the same molecule, the SI [4, 14] was 1.00, the SI ([4]; synergy index BIT + diazolidinyl urea, 24 hours) was 1.00 and the SI [4, 17] was 1.00.
